From US9458133B2, “Isoquinolines as potassium ion channel inhibitors” (BRISTOL-MYERS SQUIBB COMPANY, priority 2013, dated 2016)

What follows are molecules tested against T1, human Kv 1.5 (Homo sapiens, UniProt P22460) (assay: Block of IKur current in patch clamped L-929 cells stably expressing human Kv1.5). Details: L929, 0.3 μM; patch clamped mammalian L-929 cells expressing human Kv1.5 (IKur); read-out: KV1_5% Inh L929 @0.3 μM.
T1 construct: expressed in transfected cells; host or cells: mouse L-929 fibroblasts stably expressing human Kv1.5
T1 sequence (P22460 whole entry): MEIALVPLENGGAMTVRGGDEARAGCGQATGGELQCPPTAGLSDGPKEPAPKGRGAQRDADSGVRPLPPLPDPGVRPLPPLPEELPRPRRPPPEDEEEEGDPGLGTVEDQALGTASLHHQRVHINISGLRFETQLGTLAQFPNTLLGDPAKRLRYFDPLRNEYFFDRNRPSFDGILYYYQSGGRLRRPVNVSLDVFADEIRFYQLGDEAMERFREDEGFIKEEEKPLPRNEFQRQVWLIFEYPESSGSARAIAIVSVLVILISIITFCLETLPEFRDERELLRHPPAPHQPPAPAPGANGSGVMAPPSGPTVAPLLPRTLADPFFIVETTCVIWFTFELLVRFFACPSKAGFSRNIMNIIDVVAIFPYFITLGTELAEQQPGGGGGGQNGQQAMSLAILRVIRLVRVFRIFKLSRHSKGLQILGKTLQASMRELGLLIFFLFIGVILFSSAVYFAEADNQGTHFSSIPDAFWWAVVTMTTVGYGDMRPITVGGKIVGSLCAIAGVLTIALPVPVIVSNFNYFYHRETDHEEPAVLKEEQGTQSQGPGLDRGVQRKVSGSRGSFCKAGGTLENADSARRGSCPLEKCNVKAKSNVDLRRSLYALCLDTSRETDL
Type: cell-based
From the text: Synders, D. J. et al., “A rapidly activating and slowly inactivating potassium channel cloned from human heart: functional analysis after stable mammalian cell culture expression”, J. Gen. Physiol., 101:513-543 (1993). […]

Row | SMILES | inhibition at 0.3 µM
1 | N#Cc1ccc(-c2cc3cccc(-c4ccccc4)c3c(NCc3ccccn3)n2)cc1 [Example 40, 4-(8-phenyl-1-(pyridin-2-ylmethylamino)isoquinolin-3-yl)benzonitrile] | 92.3%
2 | NC(=O)c1cccc(-c2cc3cccc(-c4ccccc4)c3c(NCc3ccccn3)n2)c1 [Example 41, 3-(8-phenyl-1-(pyridin-2-ylmethylamino)isoquinolin-3-yl)benzamide] | 54.1%
3 | NC(=O)c1ccc(-c2cc3cccc(-c4ccccc4)c3c(NCc3ccccn3)n2)cc1 [Example 42, 4-(8-phenyl-1-(pyridin-2-ylmethylamino)isoquinolin-3-yl)benzamide] | 60.3%
4 | NS(=O)(=O)c1cncc(-c2cc3cccc(-c4ccccc4)c3c(NCc3cccc(Cl)c3Cl)n2)c1 [Example 43, 5-(1-(2,3-dichlorobenzylamino)-8-phenylisoquinolin-3-yl)pyridine-3-sulfonamide] | 16.3%
5 | NS(=O)(=O)c1cccc(-c2cc3cccc(-c4ccccc4)c3c(NCCCc3ccccc3)n2)c1 [Example 44, 3-(8-phenyl-1-(3-phenylpropylamino)isoquinolin-3-yl)benzenesulfonamide] | 18.6%
6 | Cc1ccccc1CNc1nc(-c2cncc(S(N)(=O)=O)c2)cc2cccc(-c3ccccc3)c12 [Example 45, 5-(1-(2-methylbenzylamino)-8-phenylisoquinolin-3-yl)pyridine-3-sulfonamide] | 78.5%
7 | Nc1ccccc1-c1cc2cccc(-c3ccccc3)c2c(NCc2ccccn2)n1 [Example 49, 3-(2-aminophenyl)-8-phenyl-N-(pyridin-2-ylmethyl)isoquinolin-1-amine] | 52.2%
8 | NS(=O)(=O)c1cncc(-c2cc3cccc(-c4ccccc4)c3c(NCc3ccc(F)cc3F)n2)c1 [Example 50, 5-(1-(2,4-difluorobenzylamino)-8-phenylisoquinolin-3-yl)pyridine-3-sulfonamide] | 54.1%
9 | NS(=O)(=O)Nc1ccccc1-c1cc2cccc(-c3ccccc3)c2c(NCc2ccccn2)n1 [Example 51] | 86.3%
10 | NS(=O)(=O)c1cncc(-c2cc3cccc(-c4ccccc4)c3c(NCCOc3ccccc3)n2)c1 [Example 52, 5-(1-(2-phenoxyethylamino)-8-phenylisoquinolin-3-yl)pyridine-3-sulfonamide] | 55.8%
11 | Cc1cc(C)cc(CNc2nc(-c3cncc(S(N)(=O)=O)c3)cc3cccc(-c4ccccc4)c23)c1 [Example 53, 5-(1-(3,5-dimethylbenzylamino)-8-phenylisoquinolin-3-yl)pyridine-3-sulfonamide] | 40.1%
12 | COc1cccc(CNc2nc(-c3cncc(S(N)(=O)=O)c3)cc3cccc(-c4ccccc4)c23)c1 [Example 54, 5-(1-(3-methoxybenzylamino)-8-phenylisoquinolin-3-yl)pyridine-3-sulfonamide] | 82.4%
13 | CC(=O)Nc1ccc(-c2cc3cccc(-c4ccccc4)c3c(NCc3ccccn3)n2)cn1 [Example 64, N-(5-(8-phenyl-1-(pyridin-2-ylmethylamino)isoquinolin-3-yl)pyridin-2-yl)acetamide] | 57.5%
14 | NS(=O)(=O)c1ccccc1-c1cc2cccc(-c3ccccc3)c2c(NCc2ccccn2)n1 [Example 65, 2-(8-phenyl-1-(pyridin-2-ylmethylamino)isoquinolin-3-yl)benzenesulfonamide] | 50.5%
15 | COc1ccc(-c2cc3cccc(-c4ccccc4)c3c(NCc3ccccn3)n2)cn1 [Example 67, 3-(6-methoxypyridin-3-yl)-8-phenyl-N-(pyridin-2-ylmethyl)isoquinolin-1-amine] | 96.9%
16 | NS(=O)(=O)c1cncc(-c2cc3cccc(-c4ccccc4)c3c(N[C@H]3CCN(Cc4ccccc4)C3)n2)c1 [Example 71, (S)-5-(1-(1-benzylpyrrolidin-3-ylamino)-8-phenylisoquinolin-3-yl)pyridine-3-sulfonamide] | 67.7%
17 | NS(=O)(=O)c1cncc(-c2cc3cccc(-c4ccccc4)c3c(NCc3csc(-c4ccccc4)n3)n2)c1 [Example 72, 5-(8-phenyl-1-((2-phenylthiazol-4-yl)methylamino)isoquinolin-3-yl)pyridine-3-sulfonamide] | 16.1%
18 | NS(=O)(=O)c1cncc(-c2cc3cccc(-c4ccccc4)c3c(N[C@H]3CCC[C@@H]3OCc3ccccc3)n2)c1 [Example 73, 5-(1-((1S,2S)-2-(benzyloxy)cyclopentylamino)-8-phenylisoquinolin-3-yl)pyridine-3-sulfonamide] | 56.3%
19 | Cc1cnc(CNc2nc(-c3cncc(S(N)(=O)=O)c3)cc3cccc(-c4ccccc4)c23)cn1 [Example 74, 5-(1-((5-methylpyrazin-2-yl)methylamino)-8-phenylisoquinolin-3-yl)pyridine-3-sulfonamide] | 79.5%

Now from value to molecule:

Row | inhibition at 0.3 µM | SMILES
20 | 98.4% | CC(=O)Nc1cncc(-c2c(Cl)nc(NCc3ccccn3)c3c(-c4ccccc4)cccc23)c1 [Example 46, N-(5-(3-chloro-8-phenyl-1-(pyridin-2-ylmethylamino)isoquinolin-4-yl)pyridin-3-yl)acetamide]
21 | 98.1% | CS(=O)(=O)Nc1cncc(-c2c(Cl)nc(NCc3ccccn3)c3c(-c4ccccc4)cccc23)c1 [Example 47, N-(5-(3-chloro-8-phenyl-1-(pyridin-2-ylmethylamino)isoquinolin-4-yl)pyridin-3-yl)methanesulfonamide]
22 | 98.6% | NC(=O)Nc1cncc(-c2c(Cl)nc(NCc3ccccn3)c3c(-c4ccccc4)cccc23)c1 [Example 48, 1-(5-(3-chloro-8-phenyl-1-(pyridin-2-ylmethylamino)isoquinolin-4-yl)pyridin-3-yl)urea]
23 | 97.6% | NS(=O)(=O)c1ccc(-c2c(Cl)nc(NCc3ccccn3)c3c(-c4ccccc4)cccc23)cc1 [Example 55, 4-(3-chloro-8-phenyl-1-(pyridin-2-ylmethylamino)isoquinolin-4-yl)benzenesulfonamide]
24 | 89.7% | N#Cc1ccc(-c2c(Cl)nc(NCc3ccccn3)c3c(-c4ccccc4)cccc23)cc1 [Example 56, 4-(3-chloro-8-phenyl-1-(pyridin-2-ylmethylamino)isoquinolin-4-yl)benzonitrile]
25 | 98.6% | NC(=O)c1ccc(-c2c(Cl)nc(NCc3ccccn3)c3c(-c4ccccc4)cccc23)cc1 [Example 57, 4-(3-chloro-8-phenyl-1-(pyridin-2-ylmethylamino)isoquinolin-4-yl)benzamide]
26 | 22.8% | Nc1ccc(-c2cc3cccc(-c4ccccc4)c3c(NCc3ccccn3)n2)cn1 [Example 58, 3-(6-aminopyridin-3-yl)-8-phenyl-N-(pyridin-2-ylmethyl)isoquinolin-1-amine]
27 | 96.2% | CC(=O)Nc1cccc(-c2c(Cl)nc(NCc3ccccn3)c3c(-c4ccccc4)cccc23)c1 [Example 60, N-(3-(3-chloro-8-phenyl-1-(pyridin-2-ylmethylamino)isoquinolin-4-yl)phenyl)acetamide]
28 | 95.1% | N#Cc1cccc(-c2c(Cl)nc(NCc3ccccn3)c3c(-c4ccccc4)cccc23)c1 [Example 61, 3-(3-chloro-8-phenyl-1-(pyridin-2-ylmethylamino)isoquinolin-4-yl)benzonitrile]
29 | 95.6% | COc1cc(-c2c(Cl)nc(NCc3ccccn3)c3c(-c4ccccc4)cccc23)ccn1 [Example 62, 3-chloro-4-(2-methoxypyridin-4-yl)-8-phenyl-N-(pyridin-2-ylmethyl)isoquinolin-1-amine]
30 | 53.2% | CS(=O)(=O)Nc1ccc(-c2cc3cccc(-c4ccccc4)c3c(NCc3ccccn3)n2)cn1 [Example 63, N-(5-(8-phenyl-1-(pyridin-2-ylmethylamino)isoquinolin-3-yl)pyridin-2-yl)methanesulfonamide]
31 | 99.3% | NC(=O)c1cccc(-c2c(Cl)nc(NCc3ccccn3)c3c(-c4ccccc4)cccc23)c1 [Example 66, 3-(3-chloro-8-phenyl-1-(pyridin-2-ylmethylamino)isoquinolin-4-yl)benzamide]
32 | 98.3% | Nc1ccc(-c2c(Cl)nc(NCc3ccccn3)c3c(-c4ccccc4)cccc23)cc1 [Example 68, 4-(4-aminophenyl)-3-chloro-8-phenyl-N-(pyridin-2-ylmethyl)isoquinolin-1-amine]
33 | 98.4% | CS(=O)(=O)Nc1ccc(-c2c(Cl)nc(NCc3ccccn3)c3c(-c4ccccc4)cccc23)cc1 [Example 69, N-(4-(3-chloro-8-phenyl-1-(pyridin-2-ylmethylamino)isoquinolin-4-yl)phenyl)methanesulfonamide]
34 | 95.7% | CS(=O)(=O)Nc1cccc(-c2c(Cl)nc(NCc3ccccn3)c3c(-c4ccccc4)cccc23)c1 [Example 70, N-(3-(3-chloro-8-phenyl-1-(pyridin-2-ylmethylamino)isoquinolin-4-yl)phenyl)methanesulfonamide]
35 | 97.3% | NS(=O)(=O)c1cncc(-c2c(Cl)nc(NCc3ccccc3)c3c(-c4ccccc4)cccc23)c1 [Example 75, 5-(1-(benzylamino)-3-chloro-8-phenylisoquinolin-4-yl)pyridine-3-sulfonamide]
36 | 97.2% | NS(=O)(=O)c1ccc(-c2cnc(NCc3ccccn3)c3c(-c4ccccc4)cccc23)cc1 [Example 76, 4-(8-phenyl-1-(pyridin-2-ylmethylamino)isoquinolin-4-yl)benzenesulfonamide]
37 | 99% | Nc1ccc(-c2c(Cl)nc(NCc3ccccn3)c3c(-c4ccccc4)cccc23)cn1 [Example 77, 4-(6-aminopyridin-3-yl)-3-chloro-8-phenyl-N-(pyridin-2-ylmethyl)isoquinolin-1-amine]
38 | 91% | NS(=O)(=O)c1cccc(-c2c(Cl)nc(NCc3ccccc3)c3c(-c4ccccc4)cccc23)c1 [Example 78, 3-(1-(benzylamino)-3-chloro-8-phenylisoquinolin-4-yl)benzenesulfonamide]
